The results in this text go back to paper PMC8445441, “Elucidating the mechanism by which synthetic helper peptides sensitize Pseudomonas aeruginosa to multiple antibiotics” (PLoS Pathogens, 2021).

In experiment [1] the test system is P. aeruginosa PAO1. In words: microbe, parasite or virus in culture. As to conditions: for MICa: the MIC of antibiotics: antibiotic alone. The method, then: (§1) The MIC tests were performed in triplicate using broth microdilution in accordance with Clinical and Laboratory Standards Institute (CLSI) recommendations (http://iacld.ir/DL/public/CLSI-2018-M100-S28.pdf). Briefly, drugs were two-fold diluted in MHB and mixed with an equal volume of bacterial suspensions containing approximately 1 × 10^6 CFU/mL in 96-well microliter plate. After 18 h incubation at 37 °C, the MIC values were defined as the lowest concentrations of antibiotics with no visible growth of bacteria. […] Otherwise, 1/4 MIC of the peptide was used in the combination. […] If needed, membrane compounds PG, PE, PC, CL or LPS, or membrane stabilizers MgCl2 or CaCl2, or efflux pumps inhibitor PAβN were added to the broth medium to clarify the effect of other substances on the synergy between peptide and antibiotics. All the tests were performed in triplicate.
The fractional inhibitory concentration (FIC) indices were calculated using the previously described formula FICI = FICa + FICb = MICac/MICa + MICbc/MICb. The FICI was interpreted according to EUCAST [65] as follows: synergistic, FICI≤0.5; additive, 0.5<FICI≤1; indifferent, 1<FICI<2; antagonistic, FICI ≥2. For the FICI calculations, twice the highest concentration tested was used in the cases where the MIC was not reached.

Experiment [2] concerns clinical P. aeruginosa isolates. The experiment is described as follows: microbe, parasite or virus in culture. As to conditions: Pseudomonas aeruginosa, 18 h, antibiotic alone. Here is the method:
The bacterial strains, primers and plasmids used in this study are listed in S5 Table. […] Bacteria were cultured in LB medium or cation-adjusted Muller-Hinton broth (CA-MHB) at 37 °C with agitation at 220 rpm. All the antibiotics and chemical compounds used in this study were purchased from Sigma-Aldrich.
as §1

Where [3] appears, read: S3 Table, PAO1, antibiotic + 2 μM D-11.
The mark [4] stands for this setting: S3 Table, PAO1, antibiotic + 4 μM D-11.
Where [5] appears, read: PAO1, peptide + azithromycin, twice the highest concentration used where MIC not reached.
[6] abbreviates: peptide alone, PAO1, broth microdilution in MHB, 18 h, 37 °C, triplicate.

Like-named read-outs stand apart in the source and are kept apart here. Non-standard residues stand in square brackets, D forms with d. Residues, ends and D or L forms follow the SMILES beside them. No end group written: not given here. *: point of attachment. βNA = c1ccc2cc(N*)ccc2c1 Some results are limits rather than exact numbers.

With `CCO/N=C(\C(=O)N[C@@H]1C(=O)N2C(C(=O)[O-])=C(Sc3nc(-c4cc[n+](C)cc4)cs3)CS[C@H]12)c1nsc(N)n1` [Ceftaroline], the values for the FICI in experiment [1] (setting [3]) and in experiment [1] (setting [4]) were 1.063 and 1.125, respectively. Moreover, the “MICac: the MIC for the antibiotic in the combination” value was 128/128 μM in experiment [1] (S3 Table, PAO1, with 2 μM D-11) and 128/128 μM in experiment [1] (S3 Table, PAO1, with 4 μM D-11). Besides, in experiment [1] (S3 Table, PAO1), the “MICa: the MIC of antibiotics” value is recorded as 128/128 μM.

Take `CC1=C(C(=O)O)N2C(=O)[C@@H](NC(=O)[C@H](N)c3ccccc3)[C@H]2SC1` [Cephalexin]: the values for the FICI in experiment [1] (setting [3]) and in experiment [1] (setting [4]) were 1.063 and 1.125, respectively.

As to `CC[C@@H](C)[C@@H](NC(=O)[C@H](N)CCCNC(=N)N)C(=O)N[C@@H](C(=O)N[C@H](CCC(N)=O)C(=O)N[C@H](CCCNC(=N)N)C(=O)N[C@@H](C(=O)N[C@H](CCCNC(=N)N)C(=O)N[C@H](CCCNC(=N)N)C(=O)N[C@H](Cc1c[nH]c2ccccc12)C(=O)N[C@H](CC(C)C)C(=O)N[C@H](CCCNC(=N)N)C(N)=O)[C@H](C)CC)C(C)C` [D-11-k(r)] (H-[dR][dI][dV][dQ][dR][dI][dR][dR][dW][dL][dR]-NH2), the FICI in experiment [1] (PAO1, peptide + Azithromycin, higher peptide concentration line) is reported as 0.156; in experiment [1] (PAO1, peptide + Azithromycin, lower peptide concentration line) it was 0.188; in experiment [1] (PAO1, peptide + Clarithromycin, higher peptide concentration line), 0.156; in experiment [1] (PAO1, peptide + Clarithromycin, lower peptide concentration line) it was 0.125; in experiment [1] (PAO1, peptide + Erythromycin, higher peptide concentration line), 0.188; in experiment [1] (PAO1, peptide + Erythromycin, lower peptide concentration line), 0.188. In addition, the FICI turned out to be 1.125 in experiment [1] (PAO1, peptide + Spiramycin, higher peptide concentration line); 1.063 in experiment [1] (PAO1, peptide + Spiramycin, lower peptide concentration line); 0.188 in experiment [1] (PAO1, peptide + Telithromycin, higher peptide concentration line); 0.188 in experiment [1] (PAO1, peptide + Telithromycin, lower peptide concentration line); 0.156 in experiment [1] (setting [5]). The “MICb: the MIC of the peptide” value in experiment [1] (S1 Table, peptide alone, PAO1) was found to be 64 µM.

Turning to `CC[C@@H](C)[C@@H](NC(=O)[C@@H](CC(C)C)NC(=O)[C@@H](CCCNC(=N)N)NC(=O)[C@@H](Cc1c[nH]c2ccccc12)NC(=O)[C@H](N)CC(C)C)C(=O)N[C@H](CCCNC(=N)N)C(=O)N[C@H](CCCNC(=N)N)C(=O)N[C@H](Cc1ccccc1)C(=O)N[C@H](CC(C)C)C(=O)N[C@H](CCCNC(=N)N)C(=O)N[C@H](CCCNC(=N)N)C(N)=O` [D-RW-BP100R] (H-[dL][dW][dR][dL][dI][dR][dR][dF][dL][dR][dR]-NH2), the FICI in experiment [1] (setting [5]) amounted to 1.250. Moreover, the “MICb: the MIC of the peptide” value in experiment [1] (setting [6]) is 4 µM.

As for `CC[C@@H](C)[C@@H](NC(=O)[C@@H](CCCNC(=N)N)NC(=O)[C@@H](CCCNC(=N)N)NC(=O)[C@@H](Cc1ccccc1)NC(=O)[C@@H](CC(C)C)NC(=O)[C@@H](CCCNC(=N)N)NC(=O)[C@H](N)CCCNC(=N)N)C(=O)N[C@H](CC(C)C)C(=O)N[C@H](CCCNC(=N)N)C(=O)N[C@H](Cc1c[nH]c2ccccc12)C(=O)N[C@H](CC(C)C)C(N)=O` [D-RW-BP100] (H-[dR][dR][dL][dF][dR][dR][dI][dL][dR][dW][dL]-NH2), in experiment [1] (setting [5]), the FICI was 1.250. In experiment [1] (setting [6]), the “MICb: the MIC of the peptide” value was 8 µM.

`CC[C@H](C)[C@H](NC(=O)[C@H](CCCCN)NC(=O)[C@H](CCC(=O)O)NC(=O)[C@H](CCCCN)NC(=O)[C@H](CO)NC(=O)[C@H](CCCCN)NC(=O)[C@H](CCCNC(=N)N)NC(=O)[C@H](Cc1ccccc1)NC(=O)[C@H](Cc1ccccc1)NC(=O)[C@H](CC(=O)O)NC(=O)CNC(=O)[C@H](CC(C)C)NC(=O)[C@@H](N)CC(C)C)C(=O)NCC(=O)N[C@@H](CCCCN)C(=O)N[C@@H](CCC(=O)O)C(=O)N[C@@H](Cc1ccccc1)C(=O)N[C@@H](CCCCN)C(=O)N[C@@H](CCCNC(=N)N)C(=O)N[C@H](C(=O)N[C@H](C(=O)N[C@@H](CCC(N)=O)C(=O)N[C@@H](CCCNC(=N)N)C(=O)N[C@H](C(=O)N[C@@H](CCCCN)C(=O)N[C@@H](CC(=O)O)C(=O)N[C@@H](Cc1ccccc1)C(=O)N[C@@H](CC(C)C)C(=O)N[C@@H](CCCNC(=N)N)C(=O)N[C@@H](CC(N)=O)C(=O)N[C@@H](CC(C)C)C(=O)N[C@H](C(=O)N1CCC[C@H]1C(=O)N[C@@H](CCCNC(=N)N)C(=O)N[C@H](C(=O)N[C@@H](CCC(=O)O)C(=O)N[C@@H](CO)C(=O)O)[C@@H](C)O)C(C)C)[C@@H](C)CC)C(C)C)[C@@H](C)CC` [LL-37]: in experiment [1] (setting [5]), the FICI was found to be 0.75.

As to `Cc1ncc([N+](=O)[O-])n1CCO` [Metronidazole], the FICI in experiment [1] (setting [3]) was 1.063; in experiment [1] (setting [4]), 1.125.

Consider `Cc1onc(-c2ccccc2)c1C(=O)N[C@@H]1C(=O)N2[C@@H]1SC(C)(C)[C@@H]2C(=O)O` [Oxacillin], for which the FICI in experiment [1] (setting [3]) came to 1.063; in experiment [1] (setting [4]) it was 1.125.

In the case of `NC(N)=NCCC[C@H](NC(=O)[C@@H](N)Cc1ccccc1)C(=O)Nc1ccc2ccccc2c1` [PAβN] (H-Phe-Arg-βNA), the “reduction of the MIC of azithromycin by PAβN” value in experiment [1] (PAO1, in the absence of D-11) was 64 fold; in experiment [1] (PAO1, in the presence of D-11, higher concentration of PAβN), “two”.

As to `N=C(N)c1ccc(OCCCCCOc2ccc(C(=N)N)cc2)cc1` [Pentamidine], the FICI in experiment [1] (setting [3]) amounted to 1.063; in experiment [1] (setting [4]), 1.125. Also, the “MICac: the MIC for the antibiotic in the combination” value in experiment [1] (S3 Table, PAO1, with 2 μM D-11) was 128/128 μM; in experiment [1] (S3 Table, PAO1, with 4 μM D-11), 128/128 μM. For the same compound, in experiment [1] (S3 Table, PAO1), the “MICa: the MIC of antibiotics” value is recorded as 128/128 μM.

As to `CC[C@@H](C)[C@@H](NC(=O)[C@@H](CCCCN)NC(=O)[C@@H](CCCCN)NC(=O)[C@@H](Cc1c[nH]c2ccccc12)NC(=O)[C@@H](CC(C)C)NC(=O)[C@H](N)CCCNC(=N)N)C(=O)N[C@H](CCCNC(=N)N)C(=O)N[C@H](CCC(N)=O)C(=O)N[C@@H](C(=O)N[C@@H](C(=O)N[C@H](CCCNC(=N)N)C(=O)N[C@H](CCCCN)C(N)=O)[C@H](C)CC)C(C)C` [Peptide D-11R] (H-[dR][dL][dW][dK][dK][dI][dR][dQ][dV][dI][dR][dK]-NH2), the “MICb: the MIC of the peptide” value in experiment [1] (PAO1, 18 h) was determined as 32 µM.

In the case of `CN(C)[C@@H]1C(O)=C(C(N)=O)C(=O)[C@@]2(O)C(O)=C3C(=O)c4c(O)cccc4[C@@](C)(O)[C@H]3C[C@@H]12` [Tetracycline], the MIC in experiment [2] (read-out: Antibiotic sensibility (MIC) of clinical P. aeruginosa isolate AUMC-Pa-2, strain AUMC-Pa-2) came out at 64 µM; in experiment [2] (read-out: Antibiotic sensibility (MIC) of clinical P. aeruginosa isolate AUMC-Pa-3, strain AUMC-Pa-3), 64 µM; in experiment [2] (read-out: Antibiotic sensibility (MIC) of clinical P. aeruginosa isolate AUMC-Pa-5, strain AUMC-Pa-5) it was 64 µM; in experiment [2] (read-out: Antibiotic sensibility (MIC) of clinical P. aeruginosa isolate AUMC-Pa-6, strain AUMC-Pa-6) it was 64 µM; in experiment [2] (read-out: Antibiotic sensibility (MIC) of clinical P. aeruginosa isolate HM-214, strain HM-214), 64 µM; in experiment [2] (read-out: Antibiotic sensibility (MIC) of clinical P. aeruginosa isolate NR-31040, strain NR-31040), 64 µM. For the same compound, the MIC in experiment [2] (read-out: Antibiotic sensibility (MIC) of clinical P. aeruginosa isolate NR-31041, strain NR-31041) came to 64 µM.

Take GIGKHVGKALKGLKGLLKGLGEC [ADP-1]: the “MICb: the MIC of the peptide” value in experiment [1] (setting [6]) came out at 16 µM.

On to GNNRPVYIPQPRPPHPRL [Api1b], for which the FICI in experiment [1] (setting [5]) is given as 1.125. Also, the “MICb: the MIC of the peptide” value in experiment [1] (setting [6]) is > 32 µM.

Regarding KHVGKALKGLK [ADP-1b], the “MICb: the MIC of the peptide” value in experiment [1] (PAO1, 18 h) is > 32 µM.

On to KIAKVALKALK [PEP10], for which the FICI in experiment [1] (setting [5]) stood at 1.125. Besides, the “MICb: the MIC of the peptide” value in experiment [1] (setting [6]) was > 32 µM.

Consider KRIVQRIKKWLR-NH2 [KR-12-a2], for which, in experiment [1] (PAO1, 18 h), the “MIC of the peptide” value is ≥ 32 µM and the “MICb: the MIC of the peptide” value stood at 32 µM.

Turning to LKGLKGLLKGL [ADP-1c], the “MICb: the MIC of the peptide” value in experiment [1] (PAO1, 18 h) is > 32 µM.

In the case of LKGLKGLLKGLGEC [ADP-1a], the “MICb: the MIC of the peptide” value in experiment [1] (PAO1, 18 h) is > 32 µM.

NGVQPKYK [PEP9]: in experiment [1] (PAO1, 18 h), the “MICb: the MIC of the peptide” value is > 32 µM.

For the compound RIVQRIKKWLR-NH2 [Peptide L-11], in experiment [1] (PAO1, 18 h), the “MIC of the peptide” value was ≥ 32 µM and the “MICb: the MIC of the peptide” value was 32 µM.

Consider RIVQWIKKWLR-NH2 [Peptide L-11-R5W], for which, in experiment [1] (setting [5]), the FICI is given as 1.250. Also, in experiment [1] (setting [6]), the “MICb: the MIC of the peptide” value came out at 4 µM.

In the case of RIWVIWRR-NH2 [Bac8c], in experiment [1] (setting [5]), the FICI is reported as 1.250. Moreover, the “MICb: the MIC of the peptide” value in experiment [1] (setting [6]) amounted to 4 µM.
